Measurements reported in patent publication US20020156325A1, “Asymmetric beta-ketoiminate ligand compound, preparation method thereof, and organometal percursor comprising the same” (priority 2001, published 2002).

Experiment: Thermal gravimetric analysis at atmospheric pressure
Type: physicochemical

Substance | temperature at which the metal complex was vaporized or decomposed | residue left after vaporization or decomposition (in words) (at 290° C.) | solid residue left after vaporization or decomposition
Ti [CH3COCHCNH (CH2CH (CH3) OH) CH2CH3]2 [Example 4] | 290 °C | little residue | –
Ti[CH3COCHCNH(CH2CH2OH)CH2CH3]2 [Example 5] | about 330 °C | – | 7%
Ti[CH3COCHCN(CH2CH2OH)2CH2CH3]2 [Example 6] | about 380 °C | – | about 12%
